According to article PMC8151276, “An Integrated Approach toward NanoBRET Tracers for Analysis of GPCR Ligand Engagement” (Molecules, 2021):

Experiments:
Assay type in all cases: binding
SSTR4 = target: T1, SSTR4 (Homo sapiens, UniProt P31391); test: NanoBRET screen HiBiT-SSTR4 in HEK293
T1 construct: purchased Promega (in-house HiBiT-GPCR construct library, NanoBRET)
Procedure: (§1) Each tracer candidate was screened across the entire library of HiBiT-GPCR constructs using NanoBRET as the detection modality. As depicted in Figure 4A, the specificity of interactions was evaluated through decrease in BRET due to competitive displacement of a bound tracer by excess parental compound. Each tracer was analyzed for binding to each HiBiT-GPCR fusion in the absence and in the presence of competing parental compound. Briefly, HEK293 cells were transfected with HiBiT-GPCR constructs diluted into promoterless DNA to reduce expression and maximize translocation to the cell surface. Each tracer candidate was then screened at concentrations of 1 μM and 0.1 μM across cells expressing these fusions. Cells were treated for 1.5 h with tracer either alone or in the presence of 20 μM competing parental compound (i.e., control). BRET was measured upon addition of purified LgBiT and subsequent complementation with HiBiT genetically fused to a GPCR. The specificity of interactions was assessed through a decrease in BRET signal due to competitive displacement of the bound tracer. To further gauge the robustness of these interactions, the fold response over the control (i.e., BRETtracer/BRETcontrol) was calculated. We chose a 1.5-fold response, which translates to ≥7-fold signal over noise as the minimal threshold required to score an interaction as positive. […]. Below we highlight the screening results obtained for our exemplary fluorescent tracers based on Clozapine, Amitriptyline and AZD1283.
(§2) HiBiT-GPCR DNA constructs were diluted in 10 mM Tris pH 8 to a final concentration of 0.01 μg/μL, arrayed in 96-well plates and stored at −20 °C. For transfection, HEK293 cells were suspended in Opti-MEM (without phenol red) supplemented with 2% fetal bovine serum (Seradigm) and 100 units/mL penicillin–streptomycin (Gibco) at a final concentration of 220,000 cells/mL and dispensed into white 96-well plates at 90 μL/well. Subsequent transfections and screens were carried using an Agilent Bravo Automated Liquid Handling Platform. First, the 96-well HiBiT DNA arrays were diluted 25-fold in Opti-MEM (without serum or phenol red) to a final concentration of 0.0004 μg/μL and 20 μL of the diluted DNAs were transferred into new 96-well plates. Next, promoterless carrier DNA (1 μg/μL) was diluted 25-fold (0.04 μg/μL) and then dispensed into the diluted arrays at 20 μL/well. Following brief mixing, Viafect transfection reagent (Promega) diluted 16-fold into Opti-MEM was dispensed into the plates at 40 μL/well. After mixing by pipetting, plates were incubated for 10 min on the pipetting station deck. The DNA-transfection reagent complexes were then added to plates containing cells. To facilitate the screen, 10 μL of DNA-transfection reagent complexes were added in duplicates to the top 4 and bottom 4 rows, resulting in two identical 48-well arrays per plate. Plates with transfected cells were incubated for 18–20 h at 37 °C/5% CO2. A screen of each tracer across the entire library using two different concentrations requires duplicate plates of transfected cells. Depending on the number of tracers being screened, transfections can be scaled up using the same ratios. The next day, for each tracer, four 20× screening solutions in tracer dilution buffer (Promega) were prepared: two duplicates at final concentration of 20 μM and two duplicates at a final concentration of 2 μM. A competing unmodified compound was added to one of each duplicate at a final concentration of 400 μM. The four resulting solutions were diluted 4-fold in Opti-MEM without serum or phenol red to generate 5× solutions (5 µM and 0.5 µM tracer +/− 100 μM competing compound). To screen the library, a BioTek MultiFlo FX liquid dispenser was used to dispense 22.5 µL of tracer solution to the top 4 rows and 22.5 µL tracer + competing compound solution to the 4 bottom rows. Plates were briefly mixed on an orbital shaker and incubated for 1.5 h at room temperature. […]

FZD5 = target: T2, FZD5 (Homo sapiens, UniProt Q13467); test: NanoBRET screen HiBiT-FZD5 in HEK293
T2 construct: purchased Promega (in-house HiBiT-GPCR construct library, NanoBRET)
Procedure: as §1, §2

FPR3 = target: T3, FPR3 (Homo sapiens, UniProt P25089); test: NanoBRET screen HiBiT-FPR3 in HEK293
T3 construct: purchased Promega (in-house HiBiT-GPCR construct library, NanoBRET)
T3 sequence (P25089 1-353): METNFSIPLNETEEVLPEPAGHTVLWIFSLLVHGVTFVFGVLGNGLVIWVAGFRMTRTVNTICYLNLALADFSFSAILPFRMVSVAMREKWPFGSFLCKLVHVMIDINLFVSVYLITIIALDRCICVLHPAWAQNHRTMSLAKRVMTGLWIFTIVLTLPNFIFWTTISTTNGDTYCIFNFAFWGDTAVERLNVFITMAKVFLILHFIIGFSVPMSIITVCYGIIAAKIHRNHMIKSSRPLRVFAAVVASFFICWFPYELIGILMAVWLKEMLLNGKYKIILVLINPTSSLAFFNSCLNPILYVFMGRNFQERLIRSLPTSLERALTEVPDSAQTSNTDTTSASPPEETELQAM
Procedure: as §1, §2

GABBR2 = target: T4, GABBR2 (Homo sapiens, UniProt O75899); test: NanoBRET screen HiBiT-GABBR2 in HEK293
T4 construct: purchased Promega (in-house HiBiT-GPCR construct library, NanoBRET)
T4 sequence (O75899 42-941): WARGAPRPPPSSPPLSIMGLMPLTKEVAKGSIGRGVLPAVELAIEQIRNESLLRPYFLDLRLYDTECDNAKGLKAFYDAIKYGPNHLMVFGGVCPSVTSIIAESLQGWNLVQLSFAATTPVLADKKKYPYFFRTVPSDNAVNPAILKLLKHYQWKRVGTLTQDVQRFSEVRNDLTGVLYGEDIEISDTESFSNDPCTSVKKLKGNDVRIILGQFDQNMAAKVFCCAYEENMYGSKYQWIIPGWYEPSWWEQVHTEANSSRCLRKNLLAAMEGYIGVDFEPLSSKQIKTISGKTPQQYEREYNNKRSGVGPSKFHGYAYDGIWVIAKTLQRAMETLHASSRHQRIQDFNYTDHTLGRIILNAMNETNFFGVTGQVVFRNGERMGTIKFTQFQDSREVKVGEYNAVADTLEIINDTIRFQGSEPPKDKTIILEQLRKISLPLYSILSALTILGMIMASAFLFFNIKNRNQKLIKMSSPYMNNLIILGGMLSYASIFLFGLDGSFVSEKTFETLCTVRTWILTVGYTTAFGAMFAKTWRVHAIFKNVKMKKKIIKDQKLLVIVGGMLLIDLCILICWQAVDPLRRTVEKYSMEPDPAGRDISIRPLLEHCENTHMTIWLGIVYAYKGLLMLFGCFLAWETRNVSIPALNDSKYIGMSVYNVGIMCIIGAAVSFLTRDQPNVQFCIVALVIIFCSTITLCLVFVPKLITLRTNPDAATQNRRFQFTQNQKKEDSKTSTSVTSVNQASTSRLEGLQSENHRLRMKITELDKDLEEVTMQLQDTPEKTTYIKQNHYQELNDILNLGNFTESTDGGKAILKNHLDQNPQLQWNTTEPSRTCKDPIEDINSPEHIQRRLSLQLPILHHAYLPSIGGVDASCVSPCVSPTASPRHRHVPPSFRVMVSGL
Procedure: as §1, §2

T2 sequence (Q13467 27-585): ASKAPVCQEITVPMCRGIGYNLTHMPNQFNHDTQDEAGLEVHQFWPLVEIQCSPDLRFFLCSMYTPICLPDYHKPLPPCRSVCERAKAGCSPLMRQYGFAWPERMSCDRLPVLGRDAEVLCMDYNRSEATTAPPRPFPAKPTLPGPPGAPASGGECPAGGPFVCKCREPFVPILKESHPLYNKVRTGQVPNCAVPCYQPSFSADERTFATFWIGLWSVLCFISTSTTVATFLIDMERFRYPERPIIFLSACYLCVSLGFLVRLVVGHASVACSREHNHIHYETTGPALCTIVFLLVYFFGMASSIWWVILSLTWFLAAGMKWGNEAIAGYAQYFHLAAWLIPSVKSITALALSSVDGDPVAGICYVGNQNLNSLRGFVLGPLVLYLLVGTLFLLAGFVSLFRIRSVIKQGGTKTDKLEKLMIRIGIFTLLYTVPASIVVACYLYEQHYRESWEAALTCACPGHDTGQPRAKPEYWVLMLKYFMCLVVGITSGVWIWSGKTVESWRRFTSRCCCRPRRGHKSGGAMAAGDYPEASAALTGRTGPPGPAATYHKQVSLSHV
T1 sequence (P31391 whole entry): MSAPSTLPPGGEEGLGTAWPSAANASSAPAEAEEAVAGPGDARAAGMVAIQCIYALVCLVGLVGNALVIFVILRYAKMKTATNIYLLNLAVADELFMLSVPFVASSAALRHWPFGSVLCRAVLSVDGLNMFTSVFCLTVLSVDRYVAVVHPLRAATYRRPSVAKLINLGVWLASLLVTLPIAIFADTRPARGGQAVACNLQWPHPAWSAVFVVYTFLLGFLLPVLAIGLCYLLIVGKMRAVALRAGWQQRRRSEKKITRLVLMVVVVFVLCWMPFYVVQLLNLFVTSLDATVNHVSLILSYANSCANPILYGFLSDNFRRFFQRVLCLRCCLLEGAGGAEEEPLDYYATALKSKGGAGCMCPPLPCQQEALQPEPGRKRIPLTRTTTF

| SMILES | NanoBRET Fold Response (SSTR4; 0.1μM tracer) | NanoBRET Fold Response (SSTR4; 1μM tracer) | NanoBRET Fold Response (FZD5; 0.1μM tracer) | NanoBRET Fold Response (FZD5; 1μM tracer) | NanoBRET Fold Response (FPR3; 0.1μM tracer) | NanoBRET Fold Response (FPR3; 1μM tracer) | NanoBRET Fold Response (GABBR2; 0.1μM tracer) | NanoBRET Fold Response (GABBR2; 1μM tracer) | NanoBRET Fold Response (SSTR4; SSTR4, 0.1μM tracer) | NanoBRET Fold Response (SSTR4; SSTR4, 1μM tracer) | NanoBRET Fold Response (FZD5; FZD5, 0.1μM tracer) | NanoBRET Fold Response (FZD5; FZD5, 1μM tracer) | NanoBRET Fold Response (FPR3; FPR3, 0.1μM tracer) | NanoBRET Fold Response (FPR3; FPR3, 1μM tracer) | NanoBRET Fold Response (GABBR2; GABBR2, 0.1μM tracer) | NanoBRET Fold Response (GABBR2; GABBR2, 1μM tracer) |
| --- | --- | --- | --- | --- | --- | --- | --- | --- | --- | --- | --- | --- | --- | --- | --- | --- |
| COc1ccc2c(n1)c(CCNC(C)=O)cn2CCNC(=O)CCc1ccc2n1[B-](F)(F)[N+]1=C(c3ccc[nH]3)C=CC1=C2 [Azamelatonin-1-NB590] | 0.93 | 1.01 | 0.88 | 0.88 | 0.85 | 1.06 | 0.96 | 0.96 | – | – | – | – | – | – | – | – |
| COc1ccc2[nH]c(-c3ccc(CNC(=O)CCOCCOCCOCCOCCNC(=O)CCc4ccc5n4[B-](F)(F)[N+]4=C(c6ccc[nH]6)C=CC4=C5)cc3)c(CCNC(C)=O)c2n1 [AzomelatoninICO9-2-NB590] | 0.84 | 0.98 | 0.97 | 0.93 | 1.46 | 1.02 | 0.87 | 1.13 | – | – | – | – | – | – | – | – |
| O=C(CCOCCOCCOCCOCCNC(=O)CCc1ccc2n1[B-](F)(F)[N+]1=C(c3ccc[nH]3)C=CC1=C2)NCCCN1CCN(C2=Nc3cc(Cl)ccc3Nc3ccccc32)CC1 [Clozapine-a-2-NB590] | – | – | – | – | – | – | – | – | 1.11 | 1.20 | 1.15 | 0.95 | 0.92 | 1.30 | 1.07 | 0.80 |
| CN1CCN(C2=Nc3cc(Cl)ccc3Nc3ccc(CNC(=O)CCOCCOCCOCCOCCNC(=O)CCc4ccc5n4[B-](F)(F)[N+]4=C(c6ccc[nH]6)C=CC4=C5)cc32)CC1 [Clozapine-b-2-NB590] | – | – | – | – | – | – | – | – | 0.97 | 1.02 | 1.00 | 1.04 | 1.06 | 1.23 | 0.96 | 1.07 |
| CN1CCN(C2=Nc3cc(Cl)ccc3N(CC(=O)NCCOCCOCCOCCOCCNC(=O)CCc3ccc4n3[B-](F)(F)[N+]3=C(c5ccc[nH]5)C=CC3=C4)c3ccccc32)CC1 [Clozapine-c-2-NB590] | – | – | – | – | – | – | – | – | 1.03 | 1.00 | 1.00 | 1.04 | 1.08 | 1.01 | 0.99 | 1.02 |
